The values that follow come from patent US8916565B2, “Pyrrolopyrazine-spirocyclic piperidine amides as modulators of ion channels” (priority 2011, dated 2014).

The assay deals with human NaV subtype, like NaV 1.7 (Homo sapiens, UniProt Q15858). The experiment in a line: E-VIPR optical membrane potential assay with electrical stimulation. The assay is classed as cell-based. The settings on record: active against one or more sodium channels; Table 3 does not name the assay or NaV subtype; read-out: Binned Activity Data (IC50). The text has this: Assays for Detecting and Measuring NaV Inhibition Properties of Compound E-VIPR Optical Membrane Potential Assay Method with Electrical Stimulation
Sequence of human NaV subtype, like NaV 1.7 (Q15858 whole entry): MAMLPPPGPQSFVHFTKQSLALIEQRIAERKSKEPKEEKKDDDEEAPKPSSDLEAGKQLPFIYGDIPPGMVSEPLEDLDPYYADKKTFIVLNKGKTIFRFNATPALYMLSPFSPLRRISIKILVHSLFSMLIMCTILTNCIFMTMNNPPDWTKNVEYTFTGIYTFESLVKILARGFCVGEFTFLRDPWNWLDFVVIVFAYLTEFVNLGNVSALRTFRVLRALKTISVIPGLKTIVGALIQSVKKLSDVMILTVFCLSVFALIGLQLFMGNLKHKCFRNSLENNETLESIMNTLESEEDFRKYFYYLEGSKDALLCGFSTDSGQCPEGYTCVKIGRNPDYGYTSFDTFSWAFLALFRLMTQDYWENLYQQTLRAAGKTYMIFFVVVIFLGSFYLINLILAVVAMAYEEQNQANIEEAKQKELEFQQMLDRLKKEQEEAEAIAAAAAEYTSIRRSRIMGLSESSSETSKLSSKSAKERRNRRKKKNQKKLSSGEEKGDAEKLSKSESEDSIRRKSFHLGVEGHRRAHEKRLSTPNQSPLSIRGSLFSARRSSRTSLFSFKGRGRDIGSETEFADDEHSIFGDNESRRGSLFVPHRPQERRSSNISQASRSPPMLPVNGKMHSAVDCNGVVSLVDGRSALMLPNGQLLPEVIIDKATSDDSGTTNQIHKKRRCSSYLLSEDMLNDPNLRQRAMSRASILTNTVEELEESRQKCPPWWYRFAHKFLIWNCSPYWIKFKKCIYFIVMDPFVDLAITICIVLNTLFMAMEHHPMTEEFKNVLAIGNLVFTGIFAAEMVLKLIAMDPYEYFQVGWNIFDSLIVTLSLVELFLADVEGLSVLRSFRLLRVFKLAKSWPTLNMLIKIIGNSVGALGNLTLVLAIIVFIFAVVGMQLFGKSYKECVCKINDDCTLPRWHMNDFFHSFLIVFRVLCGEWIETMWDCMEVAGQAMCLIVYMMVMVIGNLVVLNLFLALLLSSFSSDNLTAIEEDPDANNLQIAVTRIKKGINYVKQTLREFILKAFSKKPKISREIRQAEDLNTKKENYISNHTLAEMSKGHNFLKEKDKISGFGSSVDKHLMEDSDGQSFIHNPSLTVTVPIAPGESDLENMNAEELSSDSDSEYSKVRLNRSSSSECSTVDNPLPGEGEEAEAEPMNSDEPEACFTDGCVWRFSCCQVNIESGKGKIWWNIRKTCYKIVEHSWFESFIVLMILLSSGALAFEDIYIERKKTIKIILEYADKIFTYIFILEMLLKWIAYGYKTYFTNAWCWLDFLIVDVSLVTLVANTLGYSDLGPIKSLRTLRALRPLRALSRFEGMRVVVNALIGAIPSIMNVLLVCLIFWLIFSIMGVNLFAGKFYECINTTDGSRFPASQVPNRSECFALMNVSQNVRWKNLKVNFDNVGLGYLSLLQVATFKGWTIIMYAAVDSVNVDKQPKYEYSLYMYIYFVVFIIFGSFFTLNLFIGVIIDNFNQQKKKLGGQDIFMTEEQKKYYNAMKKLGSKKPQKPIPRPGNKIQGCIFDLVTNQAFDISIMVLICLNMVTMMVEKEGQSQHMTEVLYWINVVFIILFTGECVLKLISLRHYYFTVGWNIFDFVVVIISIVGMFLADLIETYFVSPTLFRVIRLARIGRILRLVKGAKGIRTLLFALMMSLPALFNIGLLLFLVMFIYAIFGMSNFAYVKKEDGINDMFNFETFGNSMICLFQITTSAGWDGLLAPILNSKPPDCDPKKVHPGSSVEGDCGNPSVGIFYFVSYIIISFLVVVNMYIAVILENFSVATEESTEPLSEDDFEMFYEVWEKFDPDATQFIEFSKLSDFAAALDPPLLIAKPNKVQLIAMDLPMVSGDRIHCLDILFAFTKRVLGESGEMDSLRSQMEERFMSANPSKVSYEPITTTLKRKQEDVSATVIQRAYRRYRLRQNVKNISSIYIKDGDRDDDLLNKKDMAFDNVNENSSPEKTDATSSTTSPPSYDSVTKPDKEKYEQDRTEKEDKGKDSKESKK
Sodium channels are voltage-dependent proteins that can be activated by inducing membrane voltage changes by applying electric fields. The electrical stimulation instrument and methods of use are described in Ion Channel Assay Methods PCT/US01/21652, herein incorporated by reference and are referred to as E-VIPR. The instrument comprises a microtiter plate handler, an optical system for exciting the coumarin dye while simultaneously recording the coumarin and oxonol emissions, a waveform generator, a current- or voltage-controlled amplifier, and a device for inserting electrodes in well. Under integrated computer control, this instrument passes user-programmed electrical stimulus protocols to cells within the wells of the microtiter plate.
24 hours before the assay on E-VIPR, HEK cells expressing human NaV subtype, like NaV 1.7, are seeded in 384-well poly-lysine coated plates at 15,000-20,000 cells per well. Other subtypes are performed in an analogous mode in a cell line expressing the NaV of interest. HEK cells are grown in media (exact composition is specific to each cell type and NaV subtype) supplemented with 10% FBS (Fetal Bovine Serum, qualified; GibcoBRL #16140-071) and 1% Pen-Strep (Penicillin-Streptomycin; GibcoBRL #15140-122). Cells are grown in vented cap flasks, in 90% humidity and 10% CO2, to 100% confluence. They are usually split by trypsinization 1:10 or 1:20, depending on scheduling needs, and grown for 2-3 days before the next split.
Bath 1 buffer. Glucose 10 mM (1.8 g/L), Magnesium Chloride (Anhydrous), 1 mM (0.095 g/L), Calcium Chloride, 2 mM (0.222 g/L), HEPES 10 mM (2.38 g/L), Potassium Chloride, 4.5 mM (0.335 g/L), Sodium Chloride 160 mM (9.35 g/L).
Hexyl Dye Solution: Bath 1 Buffer+0.5% β-cyclodextrin (make this prior to use, Sigma #C4767), 8 μM CC2-DMPE+2.5 μM DiSBAC6(3). To make the solution Add volume of 10% Pluronic F127 stock equal to volumes of CC2-DMPE+DiSBAC6(3). The order of preparation is first mix Pluronic and CC2-DMPE, then add DiSBAC6(3) while vortexing, then add Bath 1+β-Cyclodextrin.
1) Pre-spot compounds (in neat DMSO) into compound plates. Vehicle control (neat DMSO), the positive control (20 mM DMSO stock tetracaine, 125 μM final in assay) and test compounds are added to each well at 160× desired final concentration in neat DMSO. Final compound plate volume will be 80 μL (80-fold intermediate dilution from 1 μL DMSO spot; 160-fold final dilution after transfer to cell plate). Final DMSO concentration for all wells in assay is 0.625%.
2) Prepare Hexyl Dye Solution.
3) Prepare cell plates. On the day of the assay, medium is aspirated and cells are washed three times with 100 μL of Bath 1 Solution, maintaining 25 μL residual volume in each well.
4) Dispense 25 μL per well of Hexyl Dye Solution into cell plates. Incubate for 20-35 minutes at room temp or ambient conditions.
5) Dispense 80 μL per well of Bath 1 into compound plates. Acid Yellow-17 (1 mM) is added and Potassium Chloride can be altered from 4.5 to 20 mM depending on the NaV subtype and assay sensitivity.
6) Wash cell plates three times with 100 μL per well of Bath1, leaving 25 μL of residual volume. Then transfer 25 uL per well from Compound Plates to Cell Plates. Incubate for 20-35 minutes at room temp/ambient condition
7) Read Plate on E-VIPR. Use the current-controlled amplifier to deliver stimulation wave pulses for typically 9 seconds and a scan rate of 400 Hz. A pre-stimulus recording is performed for 0.5 seconds to obtain the un-stimulated intensities baseline. The stimulatory waveform is applied for 9 seconds followed by 0.5 seconds of post-stimulation recording to examine the relaxation to the resting state.

Each structure is given as a SMILES string. Some results are limits rather than exact numbers.

A word on the IC50: it is the concentration at which inhibition is half-maximal.

As for `CCC(C)(C)c1ccc(C(=O)N2CCC3(CC2)c2ccc(C(=O)C(F)(F)F)n2CCN3C)cc1` [Compound 54], the IC50 was 2000 to 5000 nM.
Under `Cc1cc(C(=O)N2CCC3(CC2)c2ccc(C(=O)C(F)(F)F)n2CCN3C)ccc1-c1ccccc1` [Compound 55] stands at most 2000 nM.
For the compound `COc1cc(C(=O)N2CCC3(CC2)c2ccc(C(C)=O)n2CCN3C)ccc1C(C)(C)C` [Compound 56], the concentration for half-maximal inhibition (IC50) was at most 2000 nM.
Under `CC(C)Oc1ccc(C(=O)N2CCC3(CC2)N[C@H](C)Cn2c(C(F)(F)F)ccc23)cc1F` [Compound 57] stands at most 2000 nM; under `COc1ccc(C(=O)N2CCC3(CC2)c2ccc(C(=O)C(C)(C)C)n2CCN3C)cc1Cl` [Compound 58], at most 2000 nM.
In the case of `COc1cc(C(=O)N2CCC3(CC2)c2ccc(C(F)(F)F)n2CCN3CC(F)(F)F)ccc1OC(C)C` [Compound 59], the IC50 was at most 2000 nM.
Under `COc1ccc(C(=O)N2CCC3(CC2)c2ccc(C(=O)C(F)(F)F)n2C[C@@H](C)N3C)cc1C(F)(F)F` [Compound 61] stands 2000 to 5000 nM.
Under `CCCCCc1ccc(C(=O)N2CCC3(CC2)c2ccc(C(=O)C(F)(F)F)n2CCN3C)cc1` [Compound 62] stands at most 2000 nM; under `Cc1cccc(C(=O)N2CCC3(CC2)c2ccc(C(F)(F)F)n2CCN3C)n1` [Compound 63], over 5000 nM; under `CCOc1ccc(C(=O)N2CCC3(CC2)c2ccc(C(=O)C(F)(F)F)n2CCN3C)cc1C(F)(F)F` [Compound 64], at most 2000 nM.
As for `CCCCOc1ccc(C(=O)N2CCC3(CC2)c2ccc(Cl)n2CCN3C)cc1OC` [Compound 65], the IC50 was at most 2000 nM.
The same measure for `CN1CCn2c(C(=O)C3CC3)ccc2C12CCN(C(=O)c1ccc(C3CCCCC3)cc1)CC2` [Compound 66]: at most 2000 nM; for `CCC(C)(C)c1ccc(C(=O)N2CCC3(CC2)c2ccc(C(C)=O)n2CCN3C)cc1` [Compound 67]: over 5000 nM; for `CN1CCn2c(Cl)ccc2C12CCN(C(=O)c1ccc(OCc3ccccc3)cc1)CC2` [Compound 68]: 2000 to 5000 nM.
The same measure for `CC(C)Oc1ccc(C(=O)N2CCC3(CC2)c2ccc(C(=O)C4CC4)n2CCN3C)cc1C(F)(F)F` [Compound 69]: at most 2000 nM.
`Cc1cc(C(=O)N2CCC3(CC2)c2ccc(C(=O)C4CC4)n2CCN3C)ccc1OC(C)C` [Compound 70]: the 50% inhibitory concentration (IC50) was at most 2000 nM.
Under `CN1CCn2c(C(=O)C(F)(F)F)ccc2C12CCN(C(=O)c1ccc(Cc3ccccc3)cc1)CC2` [Compound 71] stands at most 2000 nM; under `CN1CCn2c(C(=O)C(F)(F)F)ccc2C12CCN(C(=O)c1ccc(C(O)COCC(F)(F)F)cc1)CC2` (stereo not drawn) [Compound 72], at most 2000 nM.
Consider `CC(C)Cc1ccc(C(=O)N2CCC3(CC2)c2ccc(Cl)n2CCN3C)cc1` [Compound 73], for which the half-inhibitory concentration (IC50) lay within 2000 to 5000 nM.
As to `COc1ccc(C(=O)N2CCC3(CC2)c2ccc(C(=O)c4ccccc4)n2CCN3C)cc1Cl` [Compound 74], the IC50 lay in the range of 2000 to 5000 nM.
`CN1CCn2c(C(F)(F)F)cc(Cl)c2C12CCN(C(=O)c1ccc(COCC(F)(F)F)cc1)CC2` [Compound 75]: the half-inhibitory concentration (IC50) is at most 2000 nM.
The same measure for `CC1(C)CNC2(CCN(C(=O)c3ccc(S(=O)(=O)NC4CC4)cc3)CC2)c2ccc(C(F)(F)F)n21` [Compound 76]: over 5000 nM; for `CC(C)Oc1ccc(C(=O)N2CCC3(CC2)NCC(C)(C)n2c(C(F)(F)F)ccc23)cc1Cl` [Compound 77]: at most 2000 nM.
The same measure for `CC(=O)c1ccc2n1CCN(C)C21CCN(C(=O)c2ccc(Oc3ccccc3)cc2)CC1` [Compound 78]: 2000 to 5000 nM; for `CC(C)CCOc1ccc(C(=O)N2CCC3(CC2)NC(C)(C)Cn2cc(F)c(F)c23)cc1` [Compound 79]: over 5000 nM; for `CCc1ccc(C(=O)N2CCC3(CC2)c2ccc(C(F)(F)F)n2CCN3CCOC)cc1OC` [Compound 80]: at most 2000 nM.
The same measure for `COc1cc(C(=O)N2CCC3(CC2)c2ccc(Cl)n2CCN3C)ccc1OCC(C)C` [Compound 82]: at most 2000 nM.
Consider `COc1cc(C(=O)N2CCC3(CC2)NCCn2c(C(F)(F)F)ccc23)ccc1C(C)(C)O` [Compound 83], for which the IC50 was at most 2000 nM.
The same measure for `CN1CCn2c(C(F)(F)F)ccc2C12CCN(C(=O)c1ccc(C(C)(C)O)cc1)CC2` [Compound 84]: at most 2000 nM.
The same measure for `COc1cc(C(=O)N2CCC3(CC2)c2ccc(C(=O)C(C)(C)C)n2CCN3C)ccc1OC(C)(C)C` [Compound 85]: at most 2000 nM; for `CCOc1ccc(C(=O)N2CCC3(CC2)c2ccc(Cl)n2CCN3C)cc1OCC` [Compound 86]: over 5000 nM; for `CCCc1ccc(C(=O)N2CCC3(CC2)c2ccc(C(=O)C(F)(F)F)n2CCN3C)cc1` [Compound 87]: at most 2000 nM.
The same measure for `COc1cc(C(=O)N2CC[C@@]3(c4ccc(C(F)(F)F)n4CCN3C)[C@H](F)C2)ccc1OC(C)C` [Compound 88]: 2000 to 5000 nM.
With `COc1cc(C(=O)N2CCC3(CC2)c2ccc(C(=O)C(F)(F)F)n2CCN3C)ccc1OC(C)(C)C` [Compound 90], the concentration for half-maximal inhibition (IC50) is at most 2000 nM.
Under `CC(C)Oc1ccc(C(=O)N2CCC3(CC2)c2ccc(C(=O)C(C)(C)C)n2CCN3C)c(F)c1` [Compound 91] stands at most 2000 nM.
Under `CCCCCc1ccc(C(=O)N2CCC3(CC2)c2ccc(C(C)=O)n2CCN3C)cc1` [Compound 92] stands at most 2000 nM; under `CN1CCn2c(C(=O)C(C)(C)C)ccc2C12CCN(C(=O)c1ccc(S(=O)(=O)C(F)(F)F)cc1)CC2` [Compound 93], at most 2000 nM.
The same measure for `CCCN(CCC)S(=O)(=O)c1ccc(C(=O)N2CCC3(CC2)c2ccc(C(C)=O)n2CCN3C)cc1` [Compound 94]: 2000 to 5000 nM; for `CN1CCn2c(C(F)(F)F)cc(Cl)c2C12CCN(C(=O)c1ccc(C(C)(C)O)c(F)c1)CC2` [Compound 95]: at most 2000 nM; for `Cc1cc(C(=O)N2CCC3(CC2)c2ccc(C(F)(F)C(F)(F)F)n2CCN3C)ccc1OCCCO` [Compound 96]: at most 2000 nM.
Regarding `CN1CCn2c(C(=O)C(C)(C)C)ccc2C12CCN(C(=O)c1ccc(O)c(C(F)(F)F)c1)CC2` [Compound 97], the half-inhibitory concentration (IC50) was at most 2000 nM.
The same measure for `Cc1cc(C(=O)N2CCC3(CC2)c2ccc(C(F)(F)F)n2CCN3C)ccc1C(C)(C)O` [Compound 98]: at most 2000 nM; for `COc1ccccc1C(=O)N1CCC2(CC1)c1ccc(C(F)(F)F)n1CCN2C` [Compound 99]: 2000 to 5000 nM.
Turning to `CC(C)Oc1ccc(C(=O)N2CCC3(CC2)c2ccc(C(F)(F)F)n2CCN3C)cc1Cl` [Compound 100], the IC50 was at most 2000 nM.
Under `CN1CCn2c(C(=O)C(F)(F)F)ccc2C12CCN(C(=O)c1ccc(C3CCCCC3)cc1)CC2` [Compound 101] stands at most 2000 nM; under `CN1CCn2c(C(F)(F)F)cc(Cl)c2C12CCN(C(=O)c1ccc(COCCC(F)(F)F)cc1)CC2` [Compound 102], at most 2000 nM; under `CC1(C)Cn2c(C(=O)C(F)(F)F)ccc2C2(CCN(C(=O)c3ccc(COCCC(F)(F)F)cc3)CC2)N1` [Compound 103], at most 2000 nM.
Under `CN1CCn2c(Cl)ccc2C12CCN(C(=O)c1ccc(-c3ccccc3)cc1)CC2` [Compound 104] stands over 5000 nM; under `COc1cc(C(=O)N2CC[C@]3(c4ccc(C(F)(F)F)n4CCN3C)[C@H](F)C2)ccc1OC(C)C` [Compound 105], at most 2000 nM.
The same measure for `Cc1cc(C(=O)N2CCC3(CC2)c2ccc(C(F)(F)F)n2CCN3C2CCC2)ccc1OC(C)C` [Compound 106]: at most 2000 nM; for `CCC(=O)c1ccc2n1CCN(C)C21CCN(C(=O)c2ccc(OC(C)C)c(Cl)c2)CC1` [Compound 107]: at most 2000 nM.
